Laboratory results reported in patent publication US20080200376A1, “Compositions and Methods For the Treatment Of Obesity and Sexual Dysfunction” (priority 2004, published 2008).
Marks after values point to notes of the source that are not given here.

What was measured:
ferrets [1] = experiment: MC4R associated emesis in ferrets, Compound A and Compound B (Table 1); assay type: in vivo, ferret; conditions: Compound A 60 mg/kg orally; for % Emesis: ferrets; for # of Ferrets: ferrets with emesis/dosed
Experimental: (§1) Food intake (FI) was monitored at 1, 2, 4, and 24, hours after dosing. Body weight (BWT) was measured at the time of dosing and at 24 hours. Any incidence of emesis or abnormal behavior by subjects was recorded. Two studies were combined to generate the data.

hMC3R [2] = target: T1, hMC3R (Homo sapiens, UniProt P41968); experiment: cAMP functional assay (agonist); assay type: cell-based
T1 construct: expressed in transfected cells; host or cells: CHO-, L- or other eukaryotic cells
T1 sequence (P41968 whole entry): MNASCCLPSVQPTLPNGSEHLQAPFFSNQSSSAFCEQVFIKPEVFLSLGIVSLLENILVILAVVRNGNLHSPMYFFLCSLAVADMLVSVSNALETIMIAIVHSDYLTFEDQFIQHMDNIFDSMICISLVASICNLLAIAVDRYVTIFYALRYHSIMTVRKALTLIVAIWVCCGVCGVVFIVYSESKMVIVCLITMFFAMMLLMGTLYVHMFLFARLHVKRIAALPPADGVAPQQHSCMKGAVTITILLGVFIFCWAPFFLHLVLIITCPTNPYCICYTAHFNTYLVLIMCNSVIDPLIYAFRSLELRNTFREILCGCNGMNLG
Experimental: (§2) Cells (for example, CHO— or L-cells or other eukaryotic cells) expressing a human melanocortin receptor (see e.g. Yang-YK; Ollmann-MM; Wilson-BD; Dickinson-C; Yamada-T; Barsh-GS; Gantz-I; Mol-Endocrinol. 1997 March; 11(3): 274-80) were dissociated from tissue culture flasks by rinsing with Ca and Mg free phosphate buffered saline (14190-136, Life Technologies, Gaithersburg, Md.) and detached following 5 min incubation at 37° C. with enzyme free dissociation buffer (S-014-B, Specialty Media, Lavellette, N.J.). Cells were collected by centrifugation and resuspended in Earle's Balanced Salt Solution (14015-069, Life Technologies, Gaithersburg, Md.) with additions of 10 mM HEPES pH 7.5, 5 mM MgCl2, 1 mM glutamine and 1 mg/ml bovine serum albumin. Cells were counted and diluted to 1 to 5×10^6/mL. The phosphodiesterase inhibitor 3-isobutyl-1-methylxanthine was added to cells to 0.6 mM.
(§3) Agonist Assay: Test compounds were diluted in dimethylsulfoxide (DMSO) (10^−5 to 10^−10 M) and 0.1 volume of compound solution was added to 0.9 volumes of cell suspension; the final DMSO concentration was […]. After room temperature incubation for 45 min, cells were lysed by incubation at 100° C. for 5 min to release accumulated cAMP.
(§4) cAMP was measured in an aliquot of the cell lysate with the Amersham (Arlington Heights, Ill.)

hMC5R [3] = target: T2, hMC5R (Homo sapiens, UniProt P33032); experiment: cAMP functional assay (agonist); assay type: cell-based
T2 construct: expressed in transfected cells; host or cells: CHO-, L- or other eukaryotic cells
T2 sequence (P33032 whole entry): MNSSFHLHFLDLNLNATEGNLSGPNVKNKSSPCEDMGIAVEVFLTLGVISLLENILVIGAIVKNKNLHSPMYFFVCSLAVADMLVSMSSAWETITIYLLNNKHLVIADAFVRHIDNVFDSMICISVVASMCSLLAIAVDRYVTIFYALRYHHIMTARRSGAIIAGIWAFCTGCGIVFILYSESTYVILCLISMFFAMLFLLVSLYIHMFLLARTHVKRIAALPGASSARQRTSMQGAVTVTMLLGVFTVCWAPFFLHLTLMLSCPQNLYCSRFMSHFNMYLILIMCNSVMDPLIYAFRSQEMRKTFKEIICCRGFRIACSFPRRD
Experimental: as §2, §3, §4

hMC1bR [4] = target: T3, hMC1bR (Homo sapiens, UniProt Q01726); experiment: cAMP functional assay (agonist); assay type: cell-based
T3 sequence (Q01726 whole entry): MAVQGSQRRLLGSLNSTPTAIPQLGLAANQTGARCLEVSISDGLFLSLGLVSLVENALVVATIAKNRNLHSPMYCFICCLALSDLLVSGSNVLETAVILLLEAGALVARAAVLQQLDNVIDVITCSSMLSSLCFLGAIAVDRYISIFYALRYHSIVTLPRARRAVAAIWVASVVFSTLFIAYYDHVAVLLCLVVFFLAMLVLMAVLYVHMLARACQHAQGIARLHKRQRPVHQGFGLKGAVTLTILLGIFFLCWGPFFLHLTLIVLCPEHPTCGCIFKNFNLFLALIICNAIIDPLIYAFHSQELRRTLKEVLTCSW
Experimental: as §2, §3, §4
(§5) cAMP detection assay (RPA556). The amount of cAMP production which resulted from an unknown compound was compared to that amount of cAMP produced in response to alpha-MSH which was defined as a 100% agonist. The EC50 is defined as the compound concentration which results in half maximal stimulation, when compared to its own maximal level of stimulation.

hMC4R [5] = target: T4, hMC4R (Homo sapiens, UniProt P32245); experiment: cAMP functional assay (agonist); assay type: cell-based
T4 construct: expressed in transfected cells; host or cells: CHO-, L- or other eukaryotic cells
T4 sequence (P32245 whole entry): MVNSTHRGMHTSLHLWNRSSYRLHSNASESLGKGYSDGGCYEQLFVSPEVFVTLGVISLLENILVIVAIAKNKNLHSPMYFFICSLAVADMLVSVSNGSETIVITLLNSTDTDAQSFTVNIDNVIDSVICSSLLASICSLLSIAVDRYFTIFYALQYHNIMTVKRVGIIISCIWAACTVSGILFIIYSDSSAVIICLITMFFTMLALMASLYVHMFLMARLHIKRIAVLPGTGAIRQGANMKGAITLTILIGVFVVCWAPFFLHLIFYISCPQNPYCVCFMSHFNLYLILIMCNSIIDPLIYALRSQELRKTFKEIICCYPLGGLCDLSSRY
Experimental: as §2, §3, §4, §5

hMC2R = target: T5, hMC2R (Homo sapiens, UniProt Q01718); experiment: cAMP functional assay (agonist); assay type: cell-based
T5 construct: expressed in transfected cells; host or cells: CHO-, L- or other eukaryotic cells
T5 sequence (Q01718 whole entry): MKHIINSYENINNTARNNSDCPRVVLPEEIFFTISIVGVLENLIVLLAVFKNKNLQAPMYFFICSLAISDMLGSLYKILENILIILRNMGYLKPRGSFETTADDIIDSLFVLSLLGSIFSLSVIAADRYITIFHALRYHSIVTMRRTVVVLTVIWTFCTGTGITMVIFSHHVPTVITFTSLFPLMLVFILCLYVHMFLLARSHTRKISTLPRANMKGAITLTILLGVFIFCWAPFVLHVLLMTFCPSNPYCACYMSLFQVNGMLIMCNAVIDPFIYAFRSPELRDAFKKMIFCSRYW
T5 sequence (Q8TCY5 whole entry partner): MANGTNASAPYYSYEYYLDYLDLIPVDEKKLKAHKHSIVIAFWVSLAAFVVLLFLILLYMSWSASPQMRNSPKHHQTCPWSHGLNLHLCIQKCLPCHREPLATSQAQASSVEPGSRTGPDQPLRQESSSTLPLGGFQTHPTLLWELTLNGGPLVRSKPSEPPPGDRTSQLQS
Experimental: as §2, §3, §4, §5

hMC3R [6] = target: T1, hMC3R; experiment: Melanocortin receptor membrane binding assay (125I-NDP-alpha-MSH)
Experimental: The cells were grown at 37° C. with CO2 and humidity control until the desired cell density and cell number was obtained.

ferrets [7] = experiment: MC4R associated emesis in ferrets, Compound A and Compound F (Table 2); assay type: in vivo, ferret; conditions: Compound A (10 mg/kg); for % Emesis: ferrets; for # of Ferrets: ferrets with emesis/dosed
Experimental: FIG. 3. […] All food intake data were analyzed by two-tailed T-TEST.
as §1

hMC1bR [8] = target: T3, hMC1bR; experiment: Melanocortin receptor membrane binding assay (125I-NDP-alpha-MSH)
Experimental: (§6) The membrane binding assay was used to identify competitive inhibitors of ^125I-NDP-alpha-MSH binding to cloned human MCRs expressed in mouse L- or Chinese hamster ovary (CHO)-cells.
(§7) Cell lines expressing melanocortin receptors were grown in T-180 flasks containing selective medium of the composition: 1 L Dulbecco's modified Eagles Medium (DMEM) with 4.5 g […], 25 mM Hepes, without sodium pyruvate, (Gibco/BR1); 100 ml 10% heat-inactivated fetal bovine serum (Sigma); 10 mL 10,000 unit/mL penicillin & 10,000 μg/mL streptomycin (Gibco/BR1); 10 ml 200 mM L-glutamine (Gibco/BR1); 1 mg/mL geneticin (G418) (Gibco/BR1). The cells were grown at 37° C. with CO2 and humidity control until the desired cell density and cell number was obtained.
(§8) The medium was poured off and 10 mls/T-180 flask of enzyme-free dissociation media (Specialty Media Inc.) was added. The cells were incubated at 37° C. for 10 min or until cells sloughed off when flask was banged against hand.
(§9) The cells were harvested into 200 mL centrifuge tubes and spun at 1000 rpm, 4° C., for 10 min. The supernatant was discarded and the cells were resuspended in 5 mls/monolayer membrane preparation buffer having the composition: 10 mM Tris pH 7.2-7.4; 4 μg/mL Leupeptin (Sigma); 10 μM Phosphoramidon (Boehringer Mannheim); 40 μg/mL Bacitracin (Sigma); 5 μg/mL Aprotinin (Sigma); 10 mM Pefabloc (Boehringer Mannheim). The cells were homogenized with motor-driven dounce (Talboy setting 40), using 10 strokes and the homogenate centrifuged at 6,000 rpm, 4° C., for 15 min.
(§10) The pellets were resuspended in 0.2 mls/monolayer membrane prep buffer and aliquots were placed in tubes ([…]) and quick frozen in liquid nitrogen and then stored at −80° C.
(§11) Test compounds or unlabelled NDP-α-MSH was added to 100 μL of membrane binding buffer to a final concentration of 1 μM. The membrane binding buffer had the composition: 50 mM Tris pH 7.2; 2 mM CaCl2; 1 mM MgCl2; 5 mM KCl; 0.2% BSA; 4 μg/mL Leupeptin (SIGMA); 10 μM Phosphoramidon (Boehringer Mannheim); 40 μg/mL Bacitracin (SIGMA); 5 μg/mL Aprotinin (SIGMA); and 10 mM Pefabloc (Boehringer Mannheim). One hundred μL of membrane binding buffer containing 10-40 μg membrane protein was added, followed by […]. The resulting mixture was vortexed briefly and incubated for 90-120 min at room temp while shaking.
(§12) The mixture was filtered with Packard Microplate 196 filter apparatus using Packard Unifilter 96-well GF/C filter with 0.1% polyethyleneimine (Sigma). The filter was washed (5 times with a total of 10 mL per well) with room temperature of filter wash having the composition: 50 mM Tris-HCl pH 7.2 and 20 mM NaCl. […] The top was sealed and the radioactivity quantitated in a Packard Topcount Microplate Scintillation counter.

hMC5R [9] = target: T2, hMC5R; experiment: as above
Experimental: as §6, §7, §8, §9, §10, §11, §12

hMC4R [10] = target: T4, hMC4R; experiment: as above
Experimental: as §6, §7, §8, §9, §10, §11, §12

For `CC[C@H](NC(C)=O)c1cc(Cl)ccc1C1CCN(C(=O)[C@@H]2CN(C(C)(C)C)C[C@H]2c2ccc(F)cc2F)CC1` [Compound A], the “% Emesis” value (ferrets [1]; 1 hour) was 31%, the “% Emesis” value (ferrets [1]; 2 hours) was 8% and the “% Emesis” value (ferrets [1]; 4 hours) was 69%. The “% Emesis” value (ferrets [1]; Total, 60 mg/kg) was 77%, the “# of Ferrets” value (ferrets [1]; 1 hour) was 4/13 and the “# of Ferrets” value (ferrets [1]; 2 hours) was 1/13. The “# of Ferrets” value (ferrets [1]; 4 hours) was 9/13******, the “# of Ferrets” value (ferrets [1]; Total) was 10/13**** and the EC50 (hMC3R [2]) was 0.92 µM. For the same compound, the EC50 (hMC5R [3]) was 1.4 µM, the EC50 (hMC1bR [4]) was 1.7 µM and the “Selectivity cAMP EC50 1R/4R” value (hMC1bR [4]; EC50 hMC1bR / EC50 hMC4R) was 121.43. The EC50 (hMC4R [5]) was 0.014 µM, the EC50 (hMC2R) was over 10 µM and the IC50 (hMC3R [6]) was 7.2 µM. For the same compound, the “% Emesis” value (ferrets [7]; 1 hour) was 40%, the “% Emesis” value (ferrets [7]; 2 hours) was 40% and the “% Emesis” value (ferrets [7]; 4 hours) was 60%. For the same compound, the “% Emesis” value (ferrets [7]; total) was 100%, the “# of Ferrets” value (ferrets [7]; 1 hour) was 2/5** and the “# of Ferrets” value (ferrets [7]; 2 hours) was 2/5. For the same compound, the “# of Ferrets” value (ferrets [7]; 4 hours) was 5/5***, the “# of Ferrets” value (ferrets [7]; total) was 5/5***** and the IC50 (hMC1bR [8]) was 5.6 µM. The “Selectivity Binding IC50 1R/4R” value (hMC1bR [8]; IC50 hMC1bR / IC50 hMC4R) was 127.27, the IC50 (hMC5R [9]) was 1.6 µM and the IC50 (hMC4R [10]) was 0.044 µM.
